Key:
Type in all cases: functional, cell-based
[1] = target: T1, Muscarinic acetylcholine receptor M1 (Homo sapiens, UniProt P11229); test: Agonist activity at human muscarinic M1 receptor expressed in CHO cells after 30 mins by GTPgamma35S binding assay
T1 sequence (P11229 whole entry): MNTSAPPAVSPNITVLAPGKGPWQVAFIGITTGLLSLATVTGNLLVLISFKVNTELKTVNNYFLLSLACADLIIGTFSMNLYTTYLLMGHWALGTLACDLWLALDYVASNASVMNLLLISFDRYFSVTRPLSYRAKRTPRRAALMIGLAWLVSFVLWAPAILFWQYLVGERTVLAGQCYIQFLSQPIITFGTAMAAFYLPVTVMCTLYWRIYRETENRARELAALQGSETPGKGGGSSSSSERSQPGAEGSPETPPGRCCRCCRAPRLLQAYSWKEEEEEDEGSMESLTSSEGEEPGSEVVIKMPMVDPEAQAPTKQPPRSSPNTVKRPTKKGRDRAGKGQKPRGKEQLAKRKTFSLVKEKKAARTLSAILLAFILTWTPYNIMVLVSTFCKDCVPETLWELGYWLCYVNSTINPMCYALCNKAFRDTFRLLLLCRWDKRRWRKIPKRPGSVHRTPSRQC

[2] = target: T2, Muscarinic acetylcholine receptor M4 (Homo sapiens) (UniProt P08173); test: Agonist activity at human muscarinic M4 receptor expressed in CHO cells after 30 mins by GTPgamma35S binding assay relative to oxotremorine-M
T2 sequence (whole entry): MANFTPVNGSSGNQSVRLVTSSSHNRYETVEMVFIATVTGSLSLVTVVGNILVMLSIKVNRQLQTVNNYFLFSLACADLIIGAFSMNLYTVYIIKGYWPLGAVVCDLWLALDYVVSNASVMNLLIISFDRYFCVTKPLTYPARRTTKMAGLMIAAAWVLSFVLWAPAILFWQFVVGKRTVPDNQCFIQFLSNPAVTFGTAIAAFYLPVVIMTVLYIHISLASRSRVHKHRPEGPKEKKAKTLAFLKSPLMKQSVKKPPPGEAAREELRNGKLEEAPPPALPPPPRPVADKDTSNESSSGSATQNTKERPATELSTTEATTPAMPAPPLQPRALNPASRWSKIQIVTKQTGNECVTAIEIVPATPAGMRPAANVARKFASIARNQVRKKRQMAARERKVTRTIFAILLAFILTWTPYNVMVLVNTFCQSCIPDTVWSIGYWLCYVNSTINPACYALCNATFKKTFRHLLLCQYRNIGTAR

[3] = target: T3, Muscarinic acetylcholine receptor M2 (Homo sapiens) (UniProt P08172); test: Agonist activity at human muscarinic M2 receptor expressed in CHO cells after 30 mins by GTPgamma35S binding assay relative to oxotremorine-M
T3 sequence (whole entry): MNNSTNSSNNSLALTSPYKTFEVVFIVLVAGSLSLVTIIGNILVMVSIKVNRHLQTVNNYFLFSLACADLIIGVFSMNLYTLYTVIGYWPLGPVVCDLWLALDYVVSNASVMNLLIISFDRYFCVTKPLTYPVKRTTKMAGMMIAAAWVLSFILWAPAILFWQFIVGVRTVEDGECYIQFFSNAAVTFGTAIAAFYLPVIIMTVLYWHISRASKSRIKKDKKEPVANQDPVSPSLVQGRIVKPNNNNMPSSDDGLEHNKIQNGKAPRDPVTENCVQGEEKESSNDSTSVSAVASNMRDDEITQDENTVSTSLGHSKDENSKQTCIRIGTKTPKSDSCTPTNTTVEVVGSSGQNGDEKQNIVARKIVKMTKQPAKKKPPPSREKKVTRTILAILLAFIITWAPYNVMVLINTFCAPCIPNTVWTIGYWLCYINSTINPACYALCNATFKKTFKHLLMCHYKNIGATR

[4] = target: T4, Muscarinic acetylcholine receptor M2 (Homo sapiens, UniProt P08172); test: Agonist activity at human muscarinic M2 receptor expressed in CHO cells after 30 mins by GTPgamma35S binding assay
T4 sequence (P08172 whole entry): T3 sequence (whole entry)

[5] = target: T5, Muscarinic acetylcholine receptor M3 (Homo sapiens, UniProt P20309); test: Agonist activity at human muscarinic M3 receptor expressed in CHO cells after 30 mins by GTPgamma35S binding assay
Target sequence in this assay (P20309 whole entry): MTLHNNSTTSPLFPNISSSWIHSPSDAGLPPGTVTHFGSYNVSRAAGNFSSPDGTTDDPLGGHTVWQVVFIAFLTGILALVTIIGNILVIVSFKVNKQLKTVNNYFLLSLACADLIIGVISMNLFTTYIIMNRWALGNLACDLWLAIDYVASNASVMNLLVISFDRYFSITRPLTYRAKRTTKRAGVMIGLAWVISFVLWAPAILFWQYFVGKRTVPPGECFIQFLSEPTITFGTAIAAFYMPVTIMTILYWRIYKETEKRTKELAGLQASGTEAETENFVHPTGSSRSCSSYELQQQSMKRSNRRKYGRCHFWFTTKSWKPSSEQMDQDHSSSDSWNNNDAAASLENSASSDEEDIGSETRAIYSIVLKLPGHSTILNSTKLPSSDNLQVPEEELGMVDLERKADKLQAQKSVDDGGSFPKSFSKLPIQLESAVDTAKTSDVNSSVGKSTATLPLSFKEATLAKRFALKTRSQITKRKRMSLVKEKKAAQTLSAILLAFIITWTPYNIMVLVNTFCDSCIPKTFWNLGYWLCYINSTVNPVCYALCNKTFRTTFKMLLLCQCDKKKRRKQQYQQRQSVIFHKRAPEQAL

[6] = target: T6, Muscarinic acetylcholine receptor M1 (Homo sapiens) (UniProt P11229); test: Agonist activity at human muscarinic M1 receptor expressed in CHO cells after 30 mins by GTPgamma35S binding assay relative to oxotremorine-M
T6 sequence (whole entry): T1 sequence (P11229 whole entry)

[7] = target: T7, Muscarinic acetylcholine receptor M5 (Homo sapiens, UniProt P08912); test: Agonist activity at human muscarinic M5 receptor expressed in CHO cells after 30 mins by GTPgamma35S binding assay
T7 sequence (P08912 whole entry): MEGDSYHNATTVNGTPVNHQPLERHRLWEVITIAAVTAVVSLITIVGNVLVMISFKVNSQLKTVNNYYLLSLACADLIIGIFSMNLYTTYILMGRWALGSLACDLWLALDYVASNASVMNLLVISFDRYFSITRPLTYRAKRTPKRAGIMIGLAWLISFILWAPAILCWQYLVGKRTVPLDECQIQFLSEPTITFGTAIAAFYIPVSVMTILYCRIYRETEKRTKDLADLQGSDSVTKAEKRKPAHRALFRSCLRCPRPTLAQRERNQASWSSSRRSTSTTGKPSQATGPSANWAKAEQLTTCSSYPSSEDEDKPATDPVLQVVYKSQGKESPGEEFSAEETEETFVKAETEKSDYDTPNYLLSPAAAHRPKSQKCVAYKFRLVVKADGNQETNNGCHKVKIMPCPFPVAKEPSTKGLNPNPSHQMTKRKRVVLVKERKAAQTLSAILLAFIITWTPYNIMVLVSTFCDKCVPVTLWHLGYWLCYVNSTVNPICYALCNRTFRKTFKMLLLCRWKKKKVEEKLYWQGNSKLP

[8] = target: T8, Muscarinic acetylcholine receptor M5 (Homo sapiens) (UniProt P08912); test: Agonist activity at human muscarinic M5 receptor expressed in CHO cells after 30 mins by GTPgamma35S binding assay relative to acetylcholine
T8 sequence (whole entry): T7 sequence (P08912 whole entry)

[9] = target: T5, Muscarinic acetylcholine receptor M3; test: Agonist activity at human muscarinic M3 receptor expressed in CHO cells after 30 mins by GTPgamma35S binding assay relative to acetylcholine
Target sequence in this assay (P20309 whole entry, looked up): as the sequence (P20309 whole entry) above

[10] = target: T2, Muscarinic acetylcholine receptor M4 (Homo sapiens); test: Agonist activity at human muscarinic M4 receptor expressed in CHO cells after 30 mins by GTPgamma35S binding assay relative to acetylcholine
[11] = target: T3, Muscarinic acetylcholine receptor M2 (Homo sapiens); test: Agonist activity at human muscarinic M2 receptor expressed in CHO cells after 30 mins by GTPgamma35S binding assay relative to acetylcholine
[12] = target: T9, Muscarinic acetylcholine receptor M4 (Homo sapiens, UniProt P08173); test: Agonist activity at human muscarinic M4 receptor expressed in CHO cells after 30 mins by GTPgamma35S binding assay
T9 sequence (P08173 whole entry): T2 sequence (whole entry)

Row | SMILES | EC50 [1] | Efficacy [2] | Efficacy [3] | EC50 [4] | EC50 ([5]; cho) | Efficacy [6] | EC50 ([7]; cho) | Efficacy [8] | Efficacy [9] | Efficacy [10] | Efficacy [11] | EC50 [12] | EC50 ([5]; read-out: EC50) | EC50 ([7]; read-out: EC50)
1 | C/C(=N\c1ccc2c(c1)[C@@H](NC(=O)c1ccc(Br)cc1)[C@H](O)C2)NCCc1ccc(F)cc1 | 183 nM | < 20% | 38.5% | 211 nM | Not Active | 90.6% | Not Active | – | – | – | – | – | – | –
2 | CC(=O)OCC[N+](C)(C)C | – | – | – | – | – | – | – | 110% | 117% | 93.4% | – | – | – | –
3 | CCCCCCOc1nsnc1C1=CCCN(C)C1 | – | – | – | – | – | – | – | 25.9% | < 20% | 48.7% | 83.5% | – | – | –
4 | COc1ccc(N/C(C)=N/c2ccc3c(c2)[C@@H](NC(=O)c2ccc(Br)cc2)[C@H](O)C3)cc1 | 105 nM | < 20% | < 20% | – | Not Active | 35.3% | Not Active | – | – | – | – | – | – | –
5 | O=C(N[C@@H]1c2cc(/N=C(/Nc3ccc(F)cc3)C(F)(F)F)ccc2C[C@H]1O)c1ccc(Br)cc1 | – | < 20% | < 20% | – | Not Active | < 20% | Not Active | – | – | – | – | – | – | –
6 | COc1ccc(C(=O)N[C@@H]2c3cc(/N=C(\C)N(C)Cc4ccc(F)cc4)ccc3C[C@H]2O)cc1 | 166 nM | < 20% | < 20% | – | Not Active | 93.2% | Not Active | – | – | – | – | – | – | –
7 | C/C(=N\c1ccc2c(c1)[C@@H](NC(=O)c1ccc(F)cc1)[C@H](O)C2)N(C)Cc1ccc(F)cc1 | 392 nM | 28.4% | 43.6% | 242 nM | Not Active | 76.6% | Not Active | – | – | – | – | 392 nM | – | –
8 | COc1ccc(CN/C(C)=N/c2ccc3c(c2)[C@@H](NC(=O)c2ccc(Br)cc2)[C@H](O)C3)cc1 | 837 nM | < 20% | < 20% | – | Not Active | 32.1% | Not Active | – | – | – | – | – | – | –
9 | COc1ccc(CCN/C(C)=N/c2ccc3c(c2)[C@@H](NC(=O)c2ccc(Br)cc2)[C@H](O)C3)cc1 | 426 nM | 29.9% | 38.9% | 411 nM | Not Active | 84.5% | Not Active | – | – | – | – | 1360 nM | – | –
10 | CCn1nnc(C2=CCCN(C)C2)n1 | – | – | – | – | – | – | – | < 20% | < 20% | < 20% | 49.2% | – | – | –
11 | C/C(=N\c1ccc2c(c1)[C@@H](NC(=O)c1ccc(Br)cc1)[C@H](O)C2)N(C)Cc1ccc(F)cc1 | 154 nM | 34.3% | 30.9% | 604 nM | Not Active | 107% | Not Active | – | – | – | – | 3720 nM | – | –
12 | C/C(=N\c1ccc2c(c1)[C@@H](NC(=O)c1ccc(Br)cc1)[C@H](O)C2)N(C)CCc1ccc(F)cc1 | 80.9 nM | < 20% | 20.8% | 342 nM | Not Active | 68.5% | Not Active | – | – | – | – | – | – | –
13 | COc1cccc(CN/C(C)=N/c2ccc3c(c2)[C@@H](NC(=O)c2ccc(Br)cc2)[C@H](O)C3)c1 | 198 nM | < 20% | < 20% | – | Not Active | 60% | Not Active | – | – | – | – | – | – | –
14 | C/C(=N\c1ccc2c(c1)[C@@H](NC(=O)c1ccc(C)cc1)[C@H](O)C2)N(C)Cc1ccc(F)cc1 | 49.5 nM | 41.5% | 45.1% | 65.4 nM | Not Active | 106% | Not Active | – | – | – | – | 235 nM | – | –
15 | C/C(=N\c1ccc2c(c1)[C@@H](NC(=O)c1ccc(Cl)cc1)[C@H](O)C2)N(C)Cc1ccc(F)cc1 | 31 nM | 42.8% | 45% | 65.5 nM | Not Active | 112% | Not Active | – | – | – | – | 405 nM | – | –
16 | C/C(=N\c1ccc2c(c1)[C@@H](NC(=O)c1ccc(C(F)(F)F)cc1)[C@H](O)C2)N(C)Cc1ccc(F)cc1 | 36 nM | 30.8% | 25.4% | 172 nM | Not Active | 106% | Not Active | – | – | – | – | 393 nM | – | –
17 | C/C(=N\c1ccc2c(c1)[C@@H](NC(=O)c1ccc(Br)cc1)[C@H](O)C2)NCc1ccccc1F | 87 nM | 25.7% | 33.6% | 118 nM | Not Active | 78.5% | Not Active | – | – | – | – | 227 nM | – | –
18 | COc1ccccc1CN/C(C)=N/c1ccc2c(c1)[C@@H](NC(=O)c1ccc(Br)cc1)[C@H](O)C2 | 572 nM | < 20% | < 20% | – | Not Active | 71.5% | Not Active | – | – | – | – | – | – | –
19 | C#CCO[C@H]1CN2CCC1CC2 [TALSACLIDINE] | 820 nM | – | – | 849 nM | – | – | – | 23.7% | 26.1% | 22.2% | 94.4% | 844 nM | 2700 nM | 422 nM
20 | CO/N=C(\C#N)[C@H]1CN2CCC1CC2 [SABCOMELINE] | 63.6 nM | – | – | 62.1 nM | – | – | – | 38.9% | 28.3% | 21.3% | 87.7% | 214 nM | 117 nM | 123 nM
21 | C/C(=N\c1ccc2c(c1)[C@@H](NC(=O)c1ccc(Br)cc1)[C@H](O)C2)NCc1cccc(F)c1 | 48.4 nM | 33.4% | 26.6% | 435 nM | Not Active | 94% | Not Active | – | – | – | – | 355 nM | – | –
